Assay results taken from ChEMBL document CHEMBL1201862, “PubChem BioAssay data set” (2004).
Active and inactive are the calls of the source.

Key:
[1] = target: T1, Probable nicotinate-nucleotide adenylyltransferase (Staphylococcus aureus (strain N315), UniProt P65502); assay type: functional, Staphylococcus aureus subsp. aureus N315; settings: read-out: IC50_Mean;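 on IC50 Mean: confirmatory dose-response retesting of NadD inhibitor hits first found in an ultra-high-throughput screen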
[2] = target: T2, fMet-Leu-Phe receptor (Homo sapiens, UniProt P21462); assay: FPR ligands, dose response (AID 519); assay type: functional
T2 sequence (P21462 whole entry): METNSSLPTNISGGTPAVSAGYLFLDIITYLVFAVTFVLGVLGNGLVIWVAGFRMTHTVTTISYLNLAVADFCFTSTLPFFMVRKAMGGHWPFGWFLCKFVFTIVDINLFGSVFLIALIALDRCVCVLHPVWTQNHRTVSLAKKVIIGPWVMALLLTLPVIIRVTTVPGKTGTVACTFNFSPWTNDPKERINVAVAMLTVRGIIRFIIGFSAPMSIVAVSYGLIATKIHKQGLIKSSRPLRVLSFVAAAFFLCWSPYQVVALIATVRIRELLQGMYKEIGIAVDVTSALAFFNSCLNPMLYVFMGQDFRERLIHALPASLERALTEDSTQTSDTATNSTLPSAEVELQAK

[3] = target: T1, Probable nicotinate-nucleotide adenylyltransferase; assay type: functional, Staphylococcus aureus subsp. aureus N315
[4] = target: T3, Interleukin-8 (Homo sapiens, UniProt P10145); assay: Dose Response confirmation of uHTS small molecule hits for cystic fibrosis induced NFkb Inhibitors in a PAF-induced IL8 counterscreen.; assay type: functional; settings: read-out: IC50_Mean
T3 sequence (P10145 whole entry): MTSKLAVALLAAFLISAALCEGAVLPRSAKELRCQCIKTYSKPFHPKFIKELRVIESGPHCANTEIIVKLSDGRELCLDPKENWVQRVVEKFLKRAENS

[5] = target: T3, Interleukin-8; assay: Dose Response confirmation of uHTS small molecule hits for cystic fibrosis induced NFkb Inhibitors in a TNFa-induced IL8 counterscreen.; assay type: functional; settings: read-out: IC50_Mean
[6] = target: T4, Heat shock factor protein 1 (Mus musculus, UniProt P38532); assay: inhibition of MG132-induced HSE-luciferase signal, confirmation, cell-based, NIH3T3, luminescence, dose retest (AID 2382); assay type: functional;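 further: NIH3T3 fibroblasts with HSF1-driven luciferase reporter stressed by proteasome inhibitor MG132; luminescence from HSF1-driven luciferase expression after 8 hours of MG132 stress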
T4 sequence (P38532 whole entry): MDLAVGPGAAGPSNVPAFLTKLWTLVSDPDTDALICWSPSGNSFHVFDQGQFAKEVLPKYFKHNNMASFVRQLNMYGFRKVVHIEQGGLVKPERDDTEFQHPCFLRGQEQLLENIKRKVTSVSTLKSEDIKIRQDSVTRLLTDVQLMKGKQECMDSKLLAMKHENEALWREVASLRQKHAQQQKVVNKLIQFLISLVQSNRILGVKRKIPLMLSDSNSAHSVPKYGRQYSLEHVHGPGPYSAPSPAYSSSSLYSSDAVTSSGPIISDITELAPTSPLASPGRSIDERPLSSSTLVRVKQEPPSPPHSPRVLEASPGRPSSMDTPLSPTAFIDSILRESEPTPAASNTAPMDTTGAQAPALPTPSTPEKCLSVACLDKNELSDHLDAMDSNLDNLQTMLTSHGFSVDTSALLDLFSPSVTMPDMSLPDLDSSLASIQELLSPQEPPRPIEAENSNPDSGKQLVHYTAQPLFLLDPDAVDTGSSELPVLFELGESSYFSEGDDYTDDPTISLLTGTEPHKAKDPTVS

[7] = test system: HEK293; assay: inhibitors of LMP1-driven NF-kB reporter, dose response, cell-based, HEK293, luciferase, cherry-pick (AID 588343); assay type: functional, Homo sapiens; settings: Homo sapiens, HEK293
[8] = target: Beta-galactosidase (Escherichia coli, UniProt Q8VNN2); assay: Dose response counterscreen for EBI2 assay utilizing the enzyme, b-galactosidase.; assay type: functional
[9] = HeLa cell cytotoxicity, dose response, cytotoxicity control for MgcRacGAP inhibitor project (AID 624300); assay type: functional
[10] = target: Cytochrome P450 2D6 (Homo sapiens, UniProt P10635);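 further: CYP2D6 member of a cytochrome P450 panel assay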
Sequence of Cytochrome P450 2D6 (P10635 whole entry): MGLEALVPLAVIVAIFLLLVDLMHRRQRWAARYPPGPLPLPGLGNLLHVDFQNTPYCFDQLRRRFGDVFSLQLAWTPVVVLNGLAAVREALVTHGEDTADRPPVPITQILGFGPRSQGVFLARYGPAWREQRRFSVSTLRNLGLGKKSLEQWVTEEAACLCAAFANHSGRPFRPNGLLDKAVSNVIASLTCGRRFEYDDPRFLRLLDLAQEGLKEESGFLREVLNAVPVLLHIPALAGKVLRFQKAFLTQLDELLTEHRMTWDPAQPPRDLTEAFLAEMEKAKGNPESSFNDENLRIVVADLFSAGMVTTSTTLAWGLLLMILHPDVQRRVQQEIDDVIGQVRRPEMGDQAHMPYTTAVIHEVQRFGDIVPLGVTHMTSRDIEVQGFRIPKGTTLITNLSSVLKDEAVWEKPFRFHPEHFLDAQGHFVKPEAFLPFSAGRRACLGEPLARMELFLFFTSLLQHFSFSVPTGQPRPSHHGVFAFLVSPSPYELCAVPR

Sequence of Beta-galactosidase (Q8VNN2 whole entry): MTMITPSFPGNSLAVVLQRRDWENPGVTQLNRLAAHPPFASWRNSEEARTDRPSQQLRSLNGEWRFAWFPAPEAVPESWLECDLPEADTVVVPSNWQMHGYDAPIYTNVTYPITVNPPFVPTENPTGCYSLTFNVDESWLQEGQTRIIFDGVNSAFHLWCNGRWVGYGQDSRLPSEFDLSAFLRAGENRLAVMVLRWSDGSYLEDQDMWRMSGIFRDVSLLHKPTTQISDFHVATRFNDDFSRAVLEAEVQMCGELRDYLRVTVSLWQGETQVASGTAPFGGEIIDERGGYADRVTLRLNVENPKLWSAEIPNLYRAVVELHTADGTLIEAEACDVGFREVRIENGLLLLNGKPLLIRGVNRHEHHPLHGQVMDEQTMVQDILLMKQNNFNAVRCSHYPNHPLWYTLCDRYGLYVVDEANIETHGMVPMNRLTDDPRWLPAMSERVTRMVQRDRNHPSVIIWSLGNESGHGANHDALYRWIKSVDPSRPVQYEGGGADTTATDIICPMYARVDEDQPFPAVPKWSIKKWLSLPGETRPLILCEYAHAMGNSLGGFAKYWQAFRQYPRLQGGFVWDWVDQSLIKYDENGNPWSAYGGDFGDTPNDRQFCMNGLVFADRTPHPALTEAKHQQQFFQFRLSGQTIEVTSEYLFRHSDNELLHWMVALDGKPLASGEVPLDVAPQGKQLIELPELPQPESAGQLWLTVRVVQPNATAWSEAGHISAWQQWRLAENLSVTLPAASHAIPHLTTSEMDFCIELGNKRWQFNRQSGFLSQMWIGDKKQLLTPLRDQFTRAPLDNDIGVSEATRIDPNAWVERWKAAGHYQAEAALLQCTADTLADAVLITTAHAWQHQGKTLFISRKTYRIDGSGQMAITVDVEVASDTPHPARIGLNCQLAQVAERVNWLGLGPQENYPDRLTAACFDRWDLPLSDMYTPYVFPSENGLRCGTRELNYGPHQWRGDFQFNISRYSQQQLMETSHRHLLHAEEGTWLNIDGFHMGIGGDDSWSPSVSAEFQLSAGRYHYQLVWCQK

IC50 [8]	Structure (SMILES)	IC50 [4]	IC50 [5]	AC50 [7]	further results
–	Cc1cccc(-n2nc3c(c2NC(=O)c2ccco2)CSC3)c1C	–	–	–	IC50 [1]: 17.8 µM (active); Ki [2]: 22.9 µM (inactive); IC50 [3]: 8.29 µM (active)
–	CCCCN(c1ccccc1)c1ncnc(N)c1[N+](=O)[O-]	> 79 µM (inactive)	39.7 µM (inactive)	14.3 µM (active)	EC50 [6]: 8.33 µM (active)
> 80 µM (inactive)	CN=C(S)N1N=C(c2ccc(C)cc2)CC1c1ccc(Cl)cc1 (centres undefined)	–	–	–	–
–	CC(C)N(c1ccccc1)c1ccc(NC(S)=NCCN(C)C)cc1	–	–	–	CC50 [9]: 100 µM (active)
> 80 µM (inactive)	CN=C(S)N1N=C(c2ccc(C)cc2)CC1c1ccc(Br)cc1 (centres undefined)	–	–	–	–
–	c1cncc(CNc2ncnc3ccc(-c4ccoc4)cc23)c1	6.44 µM (active)	> 79 µM (inactive)	5.33 µM (active)	AC50 [10]: 25.1 µM (inconclusive)
